Test results: US20230085307A1, “PYRIDAZINONE COMPOUND AND HERBICIDE” (NISSAN CHEMICAL CORPORATION, priority 2019, published 2023)

Experiments:
persian speedwell [1] = experiment: Test Example 4: herbicidal effect by soil treatment (Table 19, symbol R); assay type: in vivo, Persian speedwell (Veronica persica)
How it was run: (§1)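 In this soil treatment, the formulated compound reached the seeds only through the soil: seeds were buried about 1.5 cm deep in sterilized diluvial soil, then the diluted emulsion was sprayed over the surface. After three weeks at 25° C. to 30° C. in a greenhouse, effects were graded on criteria from an earlier test.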

blackgrass [2] = experiment: Test Example 4: herbicidal effect by soil treatment (Table 19, symbol J); assay type: in vivo, blackgrass (Alopecurus myosuroides)
How it was run: as §1

rice flat sedge = experiment: Test Example 3: herbicidal effect by foliage application, Wagner pot (Table 18, symbol E); assay type: in vivo, rice flat sedge (Cyperus iria); conditions: 320 g/ha
How it was run: (§2)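 Plants were sown in alluvial soil held under 0.1–0.5 cm standing water and grown 14 days in a greenhouse at 25–30 °C. An emulsifiable formulation, water-diluted to the set dose, was then sprayed onto the foliage, and effects were scored three weeks later using previously defined criteria.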

Italian ryegrass [3] = experiment: Test Example 4: herbicidal effect by soil treatment (Table 19, symbol K); assay type: in vivo, Italian ryegrass (Lolium multiflorum)
How it was run: as §1

southern crabgrass [4] = experiment: Test Example 4: herbicidal effect by soil treatment (Table 19, symbol F); assay type: in vivo, southern crabgrass (Digitaria ciliaris)
How it was run: as §1

Japanese bulrush = experiment: Test Example 1: herbicidal activity, application before weed generation under submerged conditions (Table 16, symbol B); assay type: in vivo, Japanese bulrush (Schoenoplectus juncoides)
How it was run: (§3)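 Alluvial soil was flooded to 4 cm depth, weed seeds were sown mixed and 2.5-leaf rice seedlings were transplanted. On sowing day, the compound's emulsion, diluted in water to a set dose, was applied to the water surface. Plants grew at 25–30 °C and were scored 0–5 after three weeks.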

green foxtail [5] = experiment: Test Example 5: herbicidal effect by foliage application, plastic box (Table 20, symbol G); assay type: in vivo, green foxtail (Setaria viridis); conditions: foliage application, 320 g/ha
How it was run: (§4)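 Plants were sown into sterilized diluvial soil under about 1.5 cm cover and kept in a greenhouse at 25° C. to 30° C. Fourteen days on, foliage received an even spray of the diluted emulsion. Herbicidal or crop effect was judged three weeks afterwards.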

velvetleaf [6] = experiment: Test Example 5: herbicidal effect by foliage application, plastic box (Table 20, symbol M); assay type: in vivo, velvetleaf (Abutilon theophrasti); conditions: foliage application, 320 g/ha
How it was run: as §4

lambsquarters [7] = experiment: Test Example 4: herbicidal effect by soil treatment (Table 19, symbol O); assay type: in vivo, lambsquarters (Chenopodium album)
How it was run: as §1

Italian ryegrass [8] = experiment: Test Example 5: herbicidal effect by foliage application, plastic box (Table 20, symbol K); assay type: in vivo, Italian ryegrass (Lolium multiflorum); conditions: foliage application, 320 g/ha
How it was run: as §4

windgrass [9] = experiment: Test Example 5: herbicidal effect by foliage application, plastic box (Table 20, symbol L); assay type: in vivo, windgrass (Apera spica-venti); conditions: foliage application, 320 g/ha
How it was run: as §4

barnyard grass [10] = experiment: Test Example 4: herbicidal effect by soil treatment (Table 19, symbol H); assay type: in vivo, barnyard grass (Echinochloa crus-galli)
How it was run: as §1

chickweed = experiment: Test Example 4: herbicidal effect by soil treatment (Table 19, symbol P); assay type: in vivo, common chickweed (Stellaria media)
How it was run: as §1

redroot pigweed = experiment: Test Example 4: herbicidal effect by soil treatment (Table 19, symbol N); assay type: in vivo, redroot pigweed (Amaranthus retroflexus)
How it was run: as §1

oval-leafed pondweed = experiment: Test Example 1: herbicidal activity, application before weed generation under submerged conditions (Table 16, symbol C); assay type: in vivo, oval-leafed pondweed (Monochoria vaginalis)
How it was run: as §3

late watergrass = experiment: Test Example 1: herbicidal activity, application before weed generation under submerged conditions (Table 16, symbol A); assay type: in vivo, late watergrass (Echinochloa oryzicola)
How it was run: as §3

wild oat [11] = experiment: Test Example 5: herbicidal effect by foliage application, plastic box (Table 20, symbol I); assay type: in vivo, wild oat (Avena fatua); conditions: foliage application, 320 g/ha
How it was run: as §4

windgrass [12] = experiment: Test Example 4: herbicidal effect by soil treatment (Table 19, symbol L); assay type: in vivo, windgrass (Apera spica-venti)
How it was run: as §1

wild oat [13] = experiment: Test Example 4: herbicidal effect by soil treatment (Table 19, symbol I); assay type: in vivo, wild oat (Avena fatua)
How it was run: as §1

southern crabgrass [14] = experiment: Test Example 5: herbicidal effect by foliage application, plastic box (Table 20, symbol F); assay type: in vivo, southern crabgrass (Digitaria ciliaris); conditions: foliage application, 320 g/ha
How it was run: as §4

barnyard grass [15] = experiment: Test Example 3: herbicidal effect by foliage application, Wagner pot (Table 18, symbol H); assay type: in vivo, barnyard grass (Echinochloa crus-galli); conditions: 320 g/ha
How it was run: as §2

persian speedwell [16] = experiment: Test Example 5: herbicidal effect by foliage application, plastic box (Table 20, symbol R); assay type: in vivo, Persian speedwell (Veronica persica); conditions: foliage application, 320 g/ha
How it was run: as §4

Chinese sprangletop = experiment: Test Example 3: herbicidal effect by foliage application, Wagner pot (Table 18, symbol D); assay type: in vivo, chinese sprangletop (Leptochloa chinensis); conditions: 320 g/ha
How it was run: as §2

barnyard grass [17] = experiment: Test Example 5: herbicidal effect by foliage application, plastic box (Table 20, symbol H); assay type: in vivo, barnyard grass (Echinochloa crus-galli); conditions: foliage application, 320 g/ha
How it was run: as §4

green foxtail [18] = experiment: Test Example 4: herbicidal effect by soil treatment (Table 19, symbol G); assay type: in vivo, green foxtail (Setaria viridis)
How it was run: as §1

blackgrass [19] = experiment: Test Example 5: herbicidal effect by foliage application, plastic box (Table 20, symbol J); assay type: in vivo, blackgrass (Alopecurus myosuroides); conditions: foliage application, 320 g/ha
How it was run: as §4

lambsquarters [20] = experiment: Test Example 5: herbicidal effect by foliage application, plastic box (Table 20, symbol O); assay type: in vivo, lambsquarters (Chenopodium album); conditions: foliage application, 320 g/ha
How it was run: as §4

velvetleaf [21] = experiment: Test Example 4: herbicidal effect by soil treatment (Table 19, symbol M); assay type: in vivo, velvetleaf (Abutilon theophrasti)
How it was run: as §1

[22] = amount of applied herbicide 320 g/ha

Cc1nn(C)c(=O)c(-c2c(-c3ccc(F)cc3)sc3ccc(F)cc23)c1OC(=O)N1CCOCC1 [2-007]
herbicidal effect rating, R: persian speedwell (persian speedwell [1]; 320 g/ha): 0 (Herbicidal rate of 5% or less (almost no effect))
herbicidal effect rating, J: blackgrass (blackgrass [2]; 320 g/ha): 0 (Herbicidal rate of 5% or less (almost no effect))
herbicidal effect on E (rice flat sedge), rating 0-5 (rice flat sedge): 3 (Herbicidal rate of 40% or more and less than 70%)
herbicidal effect rating, K: Italian ryegrass (Italian ryegrass [3]; 320 g/ha): 0 (Herbicidal rate of 5% or less (almost no effect))
herbicidal effect rating, F: southern crabgrass (southern crabgrass [4]; 320 g/ha): 1 (Herbicidal rate of 5% or more and less than 20%)
Herbicidal effect on B: Japanese bulrush (grade 0-5) (Japanese bulrush; 320 g/ha applied herbicide): 0 (Herbicidal rate of 5% or less (almost no effect))
effect on green foxtail (G) (green foxtail [5]; 3 weeks after application): 0 (Herbicidal rate of 5% or less (almost no effect))
effect on velvetleaf (M) (velvetleaf [6]; 3 weeks after application): 0 (Herbicidal rate of 5% or less (almost no effect))
herbicidal effect rating, O: lambsquarters (lambsquarters [7]; 320 g/ha): 0 (Herbicidal rate of 5% or less (almost no effect))
effect on Italian ryegrass (K) (Italian ryegrass [8]; 3 weeks after application): 0 (Herbicidal rate of 5% or less (almost no effect))
effect on windgrass (L) (windgrass [9]; 3 weeks after application): 0 (Herbicidal rate of 5% or less (almost no effect))
herbicidal effect rating, H: barnyard grass (barnyard grass [10]; 320 g/ha): 0 (Herbicidal rate of 5% or less (almost no effect))
herbicidal effect rating, P: chickweed (chickweed; 320 g/ha): 0 (Herbicidal rate of 5% or less (almost no effect))
herbicidal effect rating, N: redroot pigweed (redroot pigweed; 320 g/ha): 2 (Herbicidal rate of 20% or more and less than 40%)
Herbicidal effect on C: oval-leafed pondweed (grade 0-5) (oval-leafed pondweed; 320 g/ha applied herbicide): 0 (Herbicidal rate of 5% or less (almost no effect))
Herbicidal effect on A: late watergrass (grade 0-5) (late watergrass; 320 g/ha applied herbicide): 2 (Herbicidal rate of 20% or more and less than 40%)
effect on wild oat (I) (wild oat [11]; 3 weeks after application): 0 (Herbicidal rate of 5% or less (almost no effect))
herbicidal effect rating, L: windgrass (windgrass [12]; 320 g/ha): 0 (Herbicidal rate of 5% or less (almost no effect))
herbicidal effect rating, I: wild oat (wild oat [13]; 320 g/ha): 0 (Herbicidal rate of 5% or less (almost no effect))
effect on southern crabgrass (F) (southern crabgrass [14]; 3 weeks after application): 0 (Herbicidal rate of 5% or less (almost no effect))
herbicidal effect on H (barnyard grass), rating 0-5 (barnyard grass [15]): 1 (Herbicidal rate of 5% or more and less than 20%)
effect on persian speedwell (R) (persian speedwell [16]; 3 weeks after application): 1 (Herbicidal rate of 5% or more and less than 20%)
herbicidal effect on D (Chinese sprangletop), rating 0-5 (Chinese sprangletop): 3 (Herbicidal rate of 40% or more and less than 70%)
effect on barnyard grass (H) (barnyard grass [17]; 3 weeks after application): 0 (Herbicidal rate of 5% or less (almost no effect))
herbicidal effect rating, G: green foxtail (green foxtail [18]; 320 g/ha): 2 (Herbicidal rate of 20% or more and less than 40%)
effect on blackgrass (J) (blackgrass [19]; 3 weeks after application): 0 (Herbicidal rate of 5% or less (almost no effect))
effect on lambsquarters (O) (lambsquarters [20]; 3 weeks after application): 0 (Herbicidal rate of 5% or less (almost no effect))
herbicidal effect rating, M: velvetleaf (velvetleaf [21]; 320 g/ha): 0 (Herbicidal rate of 5% or less (almost no effect))

CCCC(=O)Oc1c(C)nn(C)c(=O)c1-c1c(-c2ccccc2OC)sc2cc(OC)c(Cl)cc12 [5-069]
R: persian speedwell, herbicidal effect grade (persian speedwell [1]; [22]): 0 (Herbicidal rate of 5% or less (almost no effect))
J: blackgrass, herbicidal effect grade (blackgrass [2]; [22]): 0 (Herbicidal rate of 5% or less (almost no effect))
herbicidal effect on rice flat sedge (E) (rice flat sedge): 0 (Herbicidal rate of 5% or less (almost no effect))
K: Italian ryegrass, herbicidal effect grade (Italian ryegrass [3]; [22]): 0 (Herbicidal rate of 5% or less (almost no effect))
F: southern crabgrass, herbicidal effect grade (southern crabgrass [4]; [22]): 0 (Herbicidal rate of 5% or less (almost no effect))
Herbicidal effect, B: Japanese bulrush (Japanese bulrush; [22]): 1 (Herbicidal rate of 5% or more and less than 20%)
herbicidal effect on green foxtail (G) (green foxtail [5]; three weeks after application): 3 (Herbicidal rate of 40% or more and less than 70%)
herbicidal effect on velvetleaf (M) (velvetleaf [6]; three weeks after application): 3 (Herbicidal rate of 40% or more and less than 70%)
O: lambsquarters, herbicidal effect grade (lambsquarters [7]; [22]): 0 (Herbicidal rate of 5% or less (almost no effect))
herbicidal effect on Italian ryegrass (K) (Italian ryegrass [8]; three weeks after application): 0 (Herbicidal rate of 5% or less (almost no effect))
herbicidal effect on windgrass (L) (windgrass [9]; three weeks after application): 2 (Herbicidal rate of 20% or more and less than 40%)
H: barnyard grass, herbicidal effect grade (barnyard grass [10]; [22]): 0 (Herbicidal rate of 5% or less (almost no effect))
P: chickweed, herbicidal effect grade (chickweed; [22]): 0 (Herbicidal rate of 5% or less (almost no effect))
N: redroot pigweed, herbicidal effect grade (redroot pigweed; [22]): 2 (Herbicidal rate of 20% or more and less than 40%)
Herbicidal effect, C: oval-leafed pondweed (oval-leafed pondweed; [22]): 0 (Herbicidal rate of 5% or less (almost no effect))
Herbicidal effect, A: late watergrass (late watergrass; [22]): 3 (Herbicidal rate of 40% or more and less than 70%)
herbicidal effect on wild oat (I) (wild oat [11]; three weeks after application): 0 (Herbicidal rate of 5% or less (almost no effect))
L: windgrass, herbicidal effect grade (windgrass [12]; [22]): 0 (Herbicidal rate of 5% or less (almost no effect))
I: wild oat, herbicidal effect grade (wild oat [13]; [22]): 0 (Herbicidal rate of 5% or less (almost no effect))
herbicidal effect on southern crabgrass (F) (southern crabgrass [14]; three weeks after application): 4 (Herbicidal rate of 70% or more and less than 90%)
herbicidal effect on barnyard grass (H) (barnyard grass [15]): 4 (Herbicidal rate of 70% or more and less than 90%)
herbicidal effect on persian speedwell (R) (persian speedwell [16]; three weeks after application): 0 (Herbicidal rate of 5% or less (almost no effect))
herbicidal effect on Chinese sprangletop (D) (Chinese sprangletop): 0 (Herbicidal rate of 5% or less (almost no effect))
herbicidal effect on barnyard grass (H) (barnyard grass [17]; three weeks after application): 3 (Herbicidal rate of 40% or more and less than 70%)
G: green foxtail, herbicidal effect grade (green foxtail [18]; [22]): 0 (Herbicidal rate of 5% or less (almost no effect))
herbicidal effect on blackgrass (J) (blackgrass [19]; three weeks after application): 0 (Herbicidal rate of 5% or less (almost no effect))
herbicidal effect on lambsquarters (O) (lambsquarters [20]; three weeks after application): 3 (Herbicidal rate of 40% or more and less than 70%)
M: velvetleaf, herbicidal effect grade (velvetleaf [21]; [22]): 0 (Herbicidal rate of 5% or less (almost no effect))
